Bounds are passed on as bounds.

Data on 2 molecules can be found in patent US20210283139A1, “BIFUNCTIONAL MOLECULES FOR TARGETING UCHL5” (AMPHISTA THERAPEUTICS LTD, priority 2018, published 2021).

Common to all, as to type: cell-based
The target in assay [1] is T1, Brd4 (Homo sapiens, UniProt O60885).
T1 construct: endogenous in cells; host or cells: HEK293, HAP1, MV4-11
Kind of assay: Mechanistic evaluation of Brd4 degradation in HAP1 cells (bortezomib, degrasyn or I-BET726 pre-treatment). The following applies: 6 h. How it is done:
(§1) Immunoblotting. proteins were separated by SDS-PAGE on NuPage 4-12% Bis-Tris gels, followed by transfer to Amersham Protran 0.45 NC nitrocellulose membrane (GE Healthcare) using wet transfer. Membranes were blocked using 5% w/v milk in Tris-buffered saline (TBS) with 0.1% Tween-20. Blots were probed (overnight at 4° C.) using anti-Brd2 (Abcam ab139690, 1:2,000 dilution), anti-Brd3 (Abcam ab50818, 1:500 dilution), and anti-Brd4 (Abcam ab128874, 1:1,000 dilution) primary antibodies, as appropriate. The next day, blots were washed with TBST and incubated (1 hr at RT) with anti-Tubulin hFAB-rhodamine (BioRad, 12004166) primary antibody, and either anti-rabbit IRDye 800CW (Licor 1:10,000 dilution) or anti-mouse IRDye 800CW (Licor 1:10,000 dilution) secondary antibody. Blots were developed using a Bio-Rad ChemiDoc MP Imaging System, and band quantification was performed using Image Studio software (LiCor). Band intensities were normalized to the tubulin loading control and reported as % of the average 0.1% DMSO vehicle intensity. Degradation data was plotted and analysed using Prism (Graphpad, version 8).
(§2) HAP1 (1×10^6) cells were seeded in standard 6-well plates (2 mL medium) overnight before pre-treatment with inhibitors (10 μM bortezomib, 5 μM degrasyn or 1 μM I-BET726). After a 0.5 h pre-incubation time, cells were subsequently treated with vehicle, 0.1 μM MZ1 or 0.1 μM 05IB9, yielding a final overall DMSO concentration of 0.2% v/v. After 6 h incubation, cells were washed with DPBS (Gibco) and lysed using 85 μL RIPA buffer (Sigma-Aldrich) supplemented with cOmplete Mini EDTA-free protease inhibitor cocktail (Roche) and benzonase. Lysates were clarified by centrifugation (20,000 g, 10 min, 4° C.) and the total protein content of the supernatant was quantified using a Bradford colorimetric assay. Samples were prepared using equal amounts of total protein and LDS sample buffer (Invitrogen).
Representative blots from HAP1 lysates in FIG. 9 show depletion of Brd4 protein levels following 6 h treatment with 0.1 μM 05IB9 or MZ1, in the presence and absence of 5 μM degrasyn and 10 μM bortezomib. Brd4 band intensities were normalized to β-tubulin loading control and reported in FIG. 9B as % of the average 0.1% DMSO vehicle intensity. Each bar is mean±SEM of three independent experiments performed in duplicate (n=3). […] Furthermore, excess […] competes with 05IB9, resulting in reduced degradation of Brd4.

Assay [2] has as its target T1, Brd4. In words: Proteasome dependency of Brd4 degradation in HEK293 cells (bortezomib pre-treatment). The following applies: HEK293, 1 μM, 6 h. How it is done:
as §1
as §2, with “HEK293” for “HAP1”, “10” for “inhibitors (10”, “bortezomib.” for “bortezomib, 5 μM degrasyn or 1 μM I-BET726).”, “1” for “0.1”, “05IB6,” for “05IB9,”

The target in assay [3] is T1, Brd4. In words: Mechanistic evaluation of Brd4 degradation in HEK293 cells (degrasyn or I-BET726 pre-treatment). The following applies: 6 h. How it is done:
as §1
as §2, with “HEK293” for “HAP1”, “(5” for “(10 μM bortezomib, 5”

Assay [4] addresses T2, Brd2 (Homo sapiens, UniProt P25440). Kind of assay: Concentration-dependent BET degradation, immunoblot, HEK293 cells. Further details: endogenous in cells; host or cells: HEK293. Conditions: HEK293, Brd2, 6 h treatment, 1 nM-10 μM; read-out: Dmax (%) maximum degradation observed. The procedure:
(§3) Cell culture. HeLa (CCL-2) and HEK293 (CRL-1573) cells were purchased from ATCC and cultured in DMEM medium (Gibco) supplemented with 10% FBS, 100 μg/mL penicillin/streptomycin and L-glutamine. Cells were grown at 37° C. and 5% CO2, and were kept no longer than 30 passages. All cell lines were routinely tested for mycoplasma contamination using MycoAlert kit from Lonza.
as §1
(§4) HeLa (5×10^5) and HEK293 (1×10^6) cells were seeded in standard 6-well plates (2 mL medium) overnight before treatment with compounds at the desired concentration (1 nM-10 μM), with a final DMSO concentration of 0.1% v/v. After 6 h treatment time, cells were washed with DPBS (Gibco) and lysed using 85 μL RIPA buffer (Sigma-Aldrich) supplemented with cOmplete Mini EDTA-free protease inhibitor cocktail (Roche) and benzonase. Lysates were clarified by centrifugation (20,000g, 10 min, 4° C.) and the total protein content of the supernatant was quantified using a Bradford colorimetric assay. Samples were prepared using equal amounts of total protein and LDS sample buffer (Invitrogen.
(§5) Representative blots in FIG. 3 show depletion of Brd2, Brd3 and Brd4 protein levels following treatment with increasing concentrations of representative compounds. Band intensities were normalized to the β-tubulin loading control and reported as % of the average 0.1% DMSO vehicle intensity, with each point representing mean±SEM of two independent experiments (n=2). Degradation data was plotted and analysed using Prism (Graphpad, version 8)

Assay [5] deals with T3, Brd3 (Homo sapiens, UniProt Q15059). The description is as above. Further details: endogenous in cells; host or cells: HEK293. The following applies: HEK293, Brd3, 6 h treatment, 1 nM-10 μM. How it is done: as §3, §1, §4, §5
T3 sequence (Q15059 whole entry): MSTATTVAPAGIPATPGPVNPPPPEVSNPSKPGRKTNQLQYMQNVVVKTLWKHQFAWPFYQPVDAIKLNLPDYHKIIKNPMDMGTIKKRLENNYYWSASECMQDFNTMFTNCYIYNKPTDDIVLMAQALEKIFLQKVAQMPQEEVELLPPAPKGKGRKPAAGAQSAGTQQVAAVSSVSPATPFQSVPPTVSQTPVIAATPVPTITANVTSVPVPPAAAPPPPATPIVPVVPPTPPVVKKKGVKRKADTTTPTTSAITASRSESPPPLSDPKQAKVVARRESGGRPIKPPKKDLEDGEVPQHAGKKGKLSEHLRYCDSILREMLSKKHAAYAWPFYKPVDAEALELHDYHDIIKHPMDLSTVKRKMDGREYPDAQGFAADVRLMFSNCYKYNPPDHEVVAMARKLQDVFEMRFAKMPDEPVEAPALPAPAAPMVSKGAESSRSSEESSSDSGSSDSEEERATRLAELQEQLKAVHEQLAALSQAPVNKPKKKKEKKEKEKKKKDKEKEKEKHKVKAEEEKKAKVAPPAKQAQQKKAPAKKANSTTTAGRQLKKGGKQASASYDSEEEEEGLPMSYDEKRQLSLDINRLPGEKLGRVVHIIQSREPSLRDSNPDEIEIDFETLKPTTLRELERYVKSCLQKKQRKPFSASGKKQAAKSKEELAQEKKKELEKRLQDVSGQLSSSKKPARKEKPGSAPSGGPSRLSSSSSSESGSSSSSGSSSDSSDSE
Assay [6] concerns the target T4, Brd4 (L) (Homo sapiens, UniProt O60885).
T4 construct: endogenous in cells; host or cells: HEK293, HeLa
In words: Concentration-dependent BET degradation, immunoblot, HeLa cells. Conditions: 6 h treatment, 1 nM-10 μM, read-out: Dmax (%) maximum degradation observed. How it is done: as §3, §1, §4, §5

The target in assay [7] is T5, Brd4 (S) (Homo sapiens, UniProt O60885).
T5 construct: endogenous in cells; host or cells: HEK293, HeLa
Described as above. The following applies: 6 h treatment, 1 nM-10 μM, read-out: Dmax (%) maximum degradation observed. The procedure:
as §3, §1, §4, §5

The target of assay [8] is T2, Brd2. Described as above. More on the design: endogenous in cells; host or cells: HeLa. Conditions: Brd2, 6 h treatment, 1 nM-10 μM, read-out: Dmax (%) maximum degradation observed. The procedure:
as §3, §1, §4, §5

The target in assay [9] is T3, Brd3. The description is as above. Further details: endogenous in cells; host or cells: HeLa. Conditions: Brd3, 6 h treatment, 1 nM-10 μM. How it is done: as §3, §1, §4, §5
Assay [10] has as its target T4, Brd4 (L). Kind of assay: Concentration-dependent BET degradation, immunoblot, HEK293 cells. Conditions: 6 h treatment, 1 nM-10 μM, read-out: Dmax (%) maximum degradation observed. How it is done:
as §3, §1, §4, §5

Assay [11] concerns the target T5, Brd4 (S). Described as above. The following applies: 6 h treatment, 1 nM-10 μM, read-out: Dmax (%) maximum degradation observed. The procedure:
as §3, §1, §4, §5

The target in assay [12] is T1, Brd4. Kind of assay: Negative SAR: Brd4 immunoblot in HEK293 cells, active vs negative control. The following applies: HEK293, 1 μM, 6 h, three independent treatments. The procedure: as §1
HEK293 (1×10^6) cells incubated with DMSO, 1 μM 05IB11 or 1 μM 05IB6 for 6 h with a final DMSO concentration of 0.1% v/v. Cells from three independent treatments (n=3) were lysed with RIPA buffer and immunoblotted for Brd4 and β-tubulin.

Where [13] appears, read: read-out: Dmax (%) maximum degradation observed.

T2 sequence (P25440 whole entry): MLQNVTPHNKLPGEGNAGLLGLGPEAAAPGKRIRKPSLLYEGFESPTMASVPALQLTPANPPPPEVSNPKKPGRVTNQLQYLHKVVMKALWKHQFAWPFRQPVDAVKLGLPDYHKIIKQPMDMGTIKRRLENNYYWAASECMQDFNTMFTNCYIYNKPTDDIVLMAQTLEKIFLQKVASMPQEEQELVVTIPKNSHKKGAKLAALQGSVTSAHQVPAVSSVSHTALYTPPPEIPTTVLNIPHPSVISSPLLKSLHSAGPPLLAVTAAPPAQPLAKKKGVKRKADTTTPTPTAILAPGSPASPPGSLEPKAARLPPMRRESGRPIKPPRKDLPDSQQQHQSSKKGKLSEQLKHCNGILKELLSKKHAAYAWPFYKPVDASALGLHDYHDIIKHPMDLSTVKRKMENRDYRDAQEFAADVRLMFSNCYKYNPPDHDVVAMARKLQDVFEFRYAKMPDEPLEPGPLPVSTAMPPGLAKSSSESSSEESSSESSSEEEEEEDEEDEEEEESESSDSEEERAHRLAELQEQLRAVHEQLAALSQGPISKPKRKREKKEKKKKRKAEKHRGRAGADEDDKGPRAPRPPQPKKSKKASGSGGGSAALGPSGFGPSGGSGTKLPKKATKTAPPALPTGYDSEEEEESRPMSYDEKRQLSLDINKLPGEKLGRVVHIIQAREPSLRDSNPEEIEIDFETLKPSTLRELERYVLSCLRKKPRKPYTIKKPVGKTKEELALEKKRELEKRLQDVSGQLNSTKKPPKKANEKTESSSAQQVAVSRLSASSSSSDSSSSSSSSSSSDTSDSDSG

For the molecule `Cc1ncsc1-c1ccc(CNC(=O)[C@@H]2C[C@@H](O)CN2C(=O)[C@@H](NC(=O)COCCOCCOCCNC(=O)C[C@@H]2N=C(c3ccc(Cl)cc3)c3c(sc(C)c3C)-n3c(C)nnc32)C(C)(C)C)cc1` [MZ1, reference compound], the “Brd4 degradation in the presence of bortezomib or degrasyn” value at Brd4 [1] (HAP1, 0.1 μM compound, 0.5 h pre-treatment with 10 μM bortezomib or 5 μM degrasyn) was “only blocked by bortezomib”. Besides, the Brd4 protein levels entry was “depletion” on Brd4 [1] (HAP1, 0.1 μM); “depletion” on Brd4 [2]; “depletion” at Brd4 [3] (HEK293, 0.1 μM). For the same molecule, the “Brd4 degradation in the presence of degrasyn or I-BET726” value on Brd4 [3] (HEK293, 0.1 μM compound, 0.5 h pre-treatment with 5 μM degrasyn or 1 μM I-BET726) is listed as “only blocked by I-BET726”.
As for `CCCC(NC(=O)/C=C/c1cccc(Br)n1)c1ccc(OCCOCCOCCOCCOCCOCCOCCNC(=O)c2ccc(-c3ccc4c(c3)[C@H](Nc3ccc(Cl)cc3)C[C@H](C)N4C(C)=O)cc2)cc1` (stereo partly shown) [Example 05IB11], the Dmax at Brd2 [4] was at most 25%; on Brd3 [5] (setting [13]), at most 25%; at Brd4 (L) [6], at most 25%; at Brd4 (S) [7], at most 25%; on Brd2 [8], at most 25%; on Brd3 [9] (setting [13]), 26 to 50%. Moreover, the Dmax at Brd4 (L) [10] is at most 25%; on Brd4 (S) [11] it was 26 to 50%. Also, the DC50 at Brd3 [5] is at most 50 nM; at Brd3 [9] it was 51 to 500 nM. Besides, the Brd4 levels entry at Brd4 [12] is “minimal depletion”.
